Measured values as given in patent US12410153B2, “Compounds, compositions and methods” (Avalo Therapeutics, Inc., priority 2014, dated 2025).
Where two headings read alike, the source gives them in different places.

Legend:
[1] = Cardiovascular safety in anesthetized dogs, continuous IV infusion 90 min; type: in vivo, dog; details: dog, plasma, escalating IV infusion rates, read-out: plasma concentration at the end of infusion
Protocol: (§1) The potential effects of Form II of Compound (I) on the functions of the nervous system, cardiovascular system, and respiratory system were evaluated in a battery of safety pharmacology studies that included an in vitro human ether-a-go-go-related gene (hERG) assay and in vivo studies in rats, dogs, and monkeys. CNS effects were tested in rats at single doses at 15, 75, and 225 mg/kg.
(§2) Effects of Form II on the cardiovascular system were tested in several studies. Potential QTc effects were tested in vitro and in vivo.
(§3) Hemodynamic effects were tested in dogs and monkeys. […] However, Form II did produce dose-independent increases in systolic (12-15 mm Hg), diastolic (7-10 mm Hg), and mean arterial pressures (9-12 mm Hg) in conscious, chair-restrained monkeys given single oral doses at 15, 75, or 150 mg/kg and monitored for 6 h post-dose.

dogs = assay: as above; type: in vivo, dog; details: escalating IV infusion rates
Protocol: as §1, §2, §3

[2] = target: T1, NMDA-GluN2B receptors, human temporal cortex homogenate (Homo sapiens, UniProt Q05586+Q13224); assay: Radioligand binding, human temporal cortex homogenate; details: geometric mean
T1 construct: temporal cortex homogenate (human); from tissue; host or cells: human temporal cortex homogenate
T1 sequence (Q13224 27-1484, other chains not shown): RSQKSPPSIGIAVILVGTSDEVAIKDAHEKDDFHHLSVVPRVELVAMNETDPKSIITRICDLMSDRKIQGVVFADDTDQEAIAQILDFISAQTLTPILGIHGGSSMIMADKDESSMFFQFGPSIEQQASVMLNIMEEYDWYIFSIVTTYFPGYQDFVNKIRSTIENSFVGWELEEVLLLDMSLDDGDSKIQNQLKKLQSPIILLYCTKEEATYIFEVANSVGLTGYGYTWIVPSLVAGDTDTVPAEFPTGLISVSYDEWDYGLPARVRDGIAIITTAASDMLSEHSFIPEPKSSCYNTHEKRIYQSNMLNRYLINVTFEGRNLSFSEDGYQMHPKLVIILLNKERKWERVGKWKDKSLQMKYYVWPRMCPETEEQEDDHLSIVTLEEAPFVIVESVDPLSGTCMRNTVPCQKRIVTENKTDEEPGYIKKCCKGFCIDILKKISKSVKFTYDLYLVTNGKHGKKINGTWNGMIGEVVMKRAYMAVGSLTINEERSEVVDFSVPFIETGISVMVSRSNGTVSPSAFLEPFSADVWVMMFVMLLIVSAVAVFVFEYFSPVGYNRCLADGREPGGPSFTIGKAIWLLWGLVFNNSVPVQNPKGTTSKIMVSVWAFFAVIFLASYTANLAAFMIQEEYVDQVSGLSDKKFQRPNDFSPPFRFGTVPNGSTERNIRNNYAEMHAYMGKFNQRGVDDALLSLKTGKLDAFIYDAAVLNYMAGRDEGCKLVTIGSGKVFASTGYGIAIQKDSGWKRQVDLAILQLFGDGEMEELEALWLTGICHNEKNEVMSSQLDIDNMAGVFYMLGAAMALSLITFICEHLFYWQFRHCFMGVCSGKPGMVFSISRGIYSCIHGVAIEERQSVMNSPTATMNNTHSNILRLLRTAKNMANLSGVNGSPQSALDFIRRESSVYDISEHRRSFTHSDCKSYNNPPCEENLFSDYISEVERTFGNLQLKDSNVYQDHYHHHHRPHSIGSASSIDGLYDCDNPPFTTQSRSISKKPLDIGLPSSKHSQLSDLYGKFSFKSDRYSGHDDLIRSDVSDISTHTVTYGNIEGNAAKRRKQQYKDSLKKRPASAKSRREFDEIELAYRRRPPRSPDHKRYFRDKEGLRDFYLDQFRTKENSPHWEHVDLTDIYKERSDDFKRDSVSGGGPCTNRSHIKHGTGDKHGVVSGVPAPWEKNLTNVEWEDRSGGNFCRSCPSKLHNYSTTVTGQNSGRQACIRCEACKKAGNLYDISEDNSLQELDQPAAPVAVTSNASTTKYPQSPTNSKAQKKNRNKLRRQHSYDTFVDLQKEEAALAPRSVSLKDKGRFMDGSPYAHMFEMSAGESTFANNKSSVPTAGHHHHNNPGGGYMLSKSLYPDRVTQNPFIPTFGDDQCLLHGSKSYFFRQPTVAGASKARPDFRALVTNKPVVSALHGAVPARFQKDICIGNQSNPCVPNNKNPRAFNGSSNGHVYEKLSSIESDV
Protocol: (§4) Radioligand binding assays were performed at room temperature (or 37° C.) in 96-well microtiter plates with a final assay volume of […] in 20 mM HEPES buffer (pH 7.4) containing 150 mM NaCl. […] Nonspecific binding was assessed using N-(3-chlorobenzyl)-4-iodobenzimidamide (final concentration, 10 μM), and total binding was measured by addition of DMSO (final concentration, 2%). L(tk−) cell membranes expressing human GluN1a/GluN2B receptors (final concentration, 40 pM) and [^3H]-[(E)-N1-(2-methoxybenzyl)-cinnamamidine] (final concentration, 1 nM) were added to all wells of the microtiter plate. After 3 h (24 h or 48 h) of incubation at room temperature (or 37° C.), samples were filtered through Packard GF/B filters (presoaked in 0.05% polyethylenimine [PEI; Sigma P-3143]) and washed 10 times with 1 mL of cold 20 mM HEPES buffer per wash. After vacuum drying of the filter plates, 50 μL of Packard Microscint-20 was added and the bound radioactivity determined in a Packard TopCount.
(§5) Analogous binding experiments, to those described above for the cloned human receptor expressed in L(tk−) cells, were also performed using whole brain homogenate (rat), frontal cortex homogenate (dog and rhesus monkey), and temporal cortex homogenate (human).

[3] = Human pharmacokinetic study, single ascending oral doses; type: in vivo; details: for AUC(0-inf) / AUC(0-t) / Cmax / Tmax / half-life: male, human, plasma, oral
Protocol: Twenty-four healthy, young male subjects were assigned to 1 of 3 sequential treatment panels (A, B, and C). For each panel of 8 subjects, 2 subjects received placebo and 6 subjects were administered single ascending oral doses of crystalline Form II of Compound (I) with a minimum 7-day washout between each dose: Panel A (0.1, 0.2, 0.5, 1, and 2 mg); Panel B (2, 4, 8, and 15 mg, and 4 mg with food); and Panel C (15 and 20 mg). Blood samples were collected pre-dose and 0.5, 1, 1.5, 2, 3, 4, 6, 9, 12, 18, 24, 30, 48, and 72 h post dose. Plasma samples were analyzed for Form II concentrations using reversed phase high performance liquid chromatography with tandem mass spectrometric detection (Merck Research Laboratories). The analytical range was 0.5 to 500 nM (0.180 to 180 ng/mL).

monkeys = assay: Cardiovascular safety in conscious chair-restrained monkeys, single oral doses; type: in vivo, monkey
Protocol: as §1, §2, §3

[4] = as above; type: in vivo, monkey; details: monkey, plasma
Protocol: as §1, §2, §3

in vivo = details: both, Sprague-Dawley, rat, po
[5] = target: GluN1a/GluN2B human receptors (Homo sapiens, UniProt Q05586+Q13224); assay: Calcium influx (FLIPR) in GluN1a/GluN2B L(tk−) cells
GluN1a/GluN2B human receptors, sequence (Q13224 27-1484, other chains not shown): as above

[6] = Polymorph stability (slurry and heating, XRPD); type: physicochemical; details: between room temperature and 121° C.
Protocol: Crystalline Form II of Compound (I) was characterized using X-ray powder diffraction (XRPD) (FIG. 1A). The XRPD pattern corresponds to an anhydrous form denoted as Form II, which is highly crystalline. In addition to Form II, Compound (I) can exist as another anhydrous polymorph, denoted as Form I. The XRPD patterns of these phases are shown in FIG. 1B. A slurry experiment was performed at room temperature by adding approximately equal proportions of the two anhydrous phases to methyl-tert-butyl ether.

[7] = target: T2, NMDA-GluN2B receptors, dog frontal cortex homogenate (Canis lupus familiaris, UniProt Q5R1P0+Q5R1P3); assay: Radioligand binding, dog frontal cortex homogenate; details: geometric mean
T2 construct: frontal cortex homogenate (dog and rhesus monkey); from tissue; host or cells: dog frontal cortex homogenate
T2 sequence (Q5R1P3 27-1485, other chains not shown): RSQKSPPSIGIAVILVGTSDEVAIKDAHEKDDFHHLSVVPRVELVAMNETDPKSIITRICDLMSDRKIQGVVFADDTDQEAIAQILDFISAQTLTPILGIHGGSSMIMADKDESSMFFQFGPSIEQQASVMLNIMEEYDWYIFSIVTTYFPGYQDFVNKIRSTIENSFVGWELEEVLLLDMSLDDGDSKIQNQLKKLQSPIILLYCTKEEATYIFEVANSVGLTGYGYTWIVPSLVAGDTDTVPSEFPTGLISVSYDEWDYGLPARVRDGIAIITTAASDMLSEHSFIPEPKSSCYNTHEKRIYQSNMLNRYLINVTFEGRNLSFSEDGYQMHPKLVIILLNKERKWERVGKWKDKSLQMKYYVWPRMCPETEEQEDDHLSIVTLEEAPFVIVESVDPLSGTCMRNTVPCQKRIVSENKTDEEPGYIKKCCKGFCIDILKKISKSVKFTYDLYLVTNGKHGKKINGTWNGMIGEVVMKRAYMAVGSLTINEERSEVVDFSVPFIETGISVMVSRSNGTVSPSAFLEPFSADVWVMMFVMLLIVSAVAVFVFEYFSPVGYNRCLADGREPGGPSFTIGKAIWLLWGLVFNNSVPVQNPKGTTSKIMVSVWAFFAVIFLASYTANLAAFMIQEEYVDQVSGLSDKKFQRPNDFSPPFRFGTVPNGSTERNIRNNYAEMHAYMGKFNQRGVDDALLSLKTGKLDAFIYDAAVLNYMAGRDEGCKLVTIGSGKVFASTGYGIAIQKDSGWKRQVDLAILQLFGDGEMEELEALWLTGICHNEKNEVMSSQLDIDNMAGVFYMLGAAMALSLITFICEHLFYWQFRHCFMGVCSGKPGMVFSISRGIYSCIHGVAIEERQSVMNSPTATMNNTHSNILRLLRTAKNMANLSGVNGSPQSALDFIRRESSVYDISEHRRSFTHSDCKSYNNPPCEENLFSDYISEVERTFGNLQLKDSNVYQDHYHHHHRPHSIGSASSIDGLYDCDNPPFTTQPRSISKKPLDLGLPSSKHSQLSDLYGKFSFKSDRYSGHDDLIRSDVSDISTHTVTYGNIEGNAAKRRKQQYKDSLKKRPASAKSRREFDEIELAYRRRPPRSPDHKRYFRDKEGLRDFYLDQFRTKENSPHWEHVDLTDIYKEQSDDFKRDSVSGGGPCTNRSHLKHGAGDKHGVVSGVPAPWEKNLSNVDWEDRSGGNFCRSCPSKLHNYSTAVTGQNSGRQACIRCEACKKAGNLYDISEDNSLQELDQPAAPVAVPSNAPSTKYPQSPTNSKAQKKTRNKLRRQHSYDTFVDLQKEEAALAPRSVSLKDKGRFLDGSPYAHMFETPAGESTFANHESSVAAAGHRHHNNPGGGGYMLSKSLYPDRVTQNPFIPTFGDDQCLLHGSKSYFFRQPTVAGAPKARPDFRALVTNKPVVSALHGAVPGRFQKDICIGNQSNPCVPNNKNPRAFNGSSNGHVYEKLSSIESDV
Protocol: as §4, §5

[8] = 15, 75, or 150 mg/kg oral, dose-independent

Q: Which results are given for Cc1ccc(COC(=O)N2CC[C@H](CNc3ncccn3)[C@H](F)C2)cc1 [Form II, 4-methylbenzyl (3S, 4R)-3-fluoro-4-[(pyrimidin-2-ylamino)methyl] piperidine-1-carboxylate]?
A: concentration at 90 min [1]: ~74 µM; heart rate, arterial blood pressure, femoral blood flow (dogs): did not affect; heart rhythm and ECG parameters incl. QTc interval (dogs): did not affect; Ki ([2]; 37° C.): 8.1 nM; Ki ([2]; room temp.): 3.1 nM; decrease in Cmax, fed vs fasted ([3]; 4 mg): ~56%; delay in Tmax, fed vs fasted ([3]; 4 mg): ~1 h; overall extent of absorption (AUC), fed vs fasted ([3]; 4 mg): not affected; AUC(0-inf) ([3]; 2 mg, fasted, mean): 493 ng·h/mL; AUC(0-t) ([3]; 2 mg, fasted, mean): 398 ng·h/mL; Cmax ([3]; 2 mg, fasted, mean): 51.5 ng/mL; Tmax ([3]; 2 mg, fasted, mean, read-out: Tmax): 1.08 h; half-life ([3]; 2 mg, fasted, mean, read-out: t1/2 (converted)): 968 min; AUC(0-inf) ([3]; 4 mg, 4 mg (fed), mean): 1140 ng·h/mL; AUC(0-t) ([3]; 4 mg, 4 mg (fed), mean): 1080 ng·h/mL; Cmax ([3]; 4 mg, 4 mg (fed), mean): 80 ng/mL; Tmax ([3]; 4 mg, 4 mg (fed), mean, read-out: Tmax): 2 h; half-life ([3]; 4 mg, 4 mg (fed), mean, read-out: t1/2 (converted)): 1040 min; AUC(0-inf) ([3]; 4 mg, fasted, mean): 1110 ng·h/mL; AUC(0-t) ([3]; 4 mg, fasted, mean): 1060 ng·h/mL; Cmax ([3]; 4 mg, fasted, mean): 141 ng/mL; Tmax ([3]; 4 mg, fasted, mean, read-out: Tmax): 0.67 h; half-life ([3]; 4 mg, fasted, mean, read-out: t1/2 (converted)): 1020 min; AUC(0-inf) ([3]; 8 mg, fasted, mean): 2260 ng·h/mL; AUC(0-t) ([3]; 8 mg, fasted, mean): 2150 ng·h/mL; Cmax ([3]; 8 mg, fasted, mean): 212 ng/mL; Tmax ([3]; 8 mg, fasted, mean, read-out: Tmax): 0.92 h; half-life ([3]; 8 mg, fasted, mean, read-out: t1/2 (converted)): 1020 min; AUC(0-inf) ([3]; 15 mg, fasted, mean): 4400 ng·h/mL; AUC(0-t) ([3]; 15 mg, fasted, mean): 3520 ng·h/mL; Cmax ([3]; 15 mg, fasted, mean): 385 ng/mL; Tmax ([3]; 15 mg, fasted, mean, read-out: Tmax): 1.04 h; half-life ([3]; 15 mg, fasted, mean, read-out: t1/2 (converted)): 1010 min; AUC(0-inf) ([3]; 20 mg, fasted, mean): 5910 ng·h/mL; AUC(0-t) ([3]; 20 mg, fasted, mean): 5590 ng·h/mL; Cmax ([3]; 20 mg, fasted, mean): 590 ng/mL; Tmax ([3]; 20 mg, fasted, mean, read-out: Tmax): 1 h; half-life ([3]; 20 mg, fasted, mean, read-out: t1/2 (converted)): 954 min; Tmax ([3]; across all fasted dose levels, read-out: mean Tmax): ≤ 1 h; half-life ([3]; over the 4- to 20-mg dose range, read-out: terminal elimination half-life): 720 to 1020 min; Cmax and AUC vs dose ([3]; over the dose range studied): dose-proportional; heart rhythm and ECG parameters (monkeys; 15, 75, and 150 mg/kg oral, monitored 6 h): did not affect; increase in diastolic pressure (monkeys; [8]): 7-10 mm Hg; increase in mean arterial pressure (monkeys; [8]): 9-12 mm Hg; increase in systolic pressure (monkeys; [8]): 12-15 mm Hg; Cmax ([4]; 15 mg/kg oral): ~3 µM; Cmax ([4]; 75 mg/kg oral): ~9 µM; Cmax ([4]; 150 mg/kg oral): ~15 µM; Cmax (in vivo; 10 mg/kg): ~4 µM; Cmax (in vivo; 30 mg/kg): ~14 µM; Cmax (in vivo; 100 mg/kg): ~26 µM; IC50 [5]: 3.6 nM; thermodynamic stability of polymorph [6]: thermodynamically stable form; Ki ([7]; 37° C.): 13 nM; Ki ([7]; room temp.): 3.2 nM
